Test results: PMC4057681, “Antenna-Specific Glutathione S-Transferase in Male Silkmoth Bombyx mori” (International Journal of Molecular Sciences, 2014)

System: T1, BmGSTD4
T1 construct: 245 aa precursor; signal peptide (22 aa) and the first two mature residues (Gly, Pro) removed; p28 vector (from pET28a), nickel column, E. coli Rosetta (DE3); about 26 kDa on SDS-PAGE; mature calculated 25,518 Da; by translation of printed primers: precursor begins MLTASVLG, construct begins (M)KKLVAPIK, C-terminus FINKDDE
Assay: spectrophotometric GSH conjugation at […] nm, steady-state kinetics
Assay type: biochemical, Bombyx mori
Details: 1 mM GSH, 0.1 M phosphate buffer pH 6.5

In the case of `O=[N+]([O-])c1ccc(Cl)c([N+](=O)[O-])c1` [CDNB, 1-chloro-2,4-dinitrobenzene], the Km was 20 µM.
